Source: paper PMC11946258, “Self-Assembly, Antimicrobial Properties and Biodegradability of Ester-Functionalized Choline-Based Surface-Active Ionic Liquids” (Molecules, 2025)

Experiments:
Candida parasilopsis = test: Antifungal MIC broth microdilution; format: cell-based; details: Candida parapsilosis ATCC 22019, RPMI 1640, 24 h, 30 °C
Procedure: (§1) The antimicrobial activity of cholinium-based ILs with an ester group in the alkyl chain was evaluated against a range of representative bacteria and fungi.
(§2) The antifungal activity was evaluated against the following yeasts: Candida albicans ATCC 90028, Candida tropicalis ATCC 7349, Candida parapsilosis ATCC 22019, Candida glabrata ATCC 66032. Frozen yeast stocks were inoculated into Sabourauds’s agar (SBA) and culture plates and incubated at 35 °C for 24 h. Three to four colonies of each strain were dispersed in sterile medium, Roswell Park Memorial Institute medium (RPMI 1640 medium), to obtain dispersions with a turbidity equivalent to 0.5 on the MacFarland scale (McFarland DEN-1B Grant-bio model densitometer). Minimum fungicidal concentrations (MFC) values—the lowest concentration of an antimicrobial agent that prevents the establishment of visible microbial growth after 24 h at 30 °C—were used to determine in vitro antifungal activity. MFCs were determined using a broth microdilution assay. Serial dilutions of each IL, ranging from 512 to 2 µg/mL, were dissolved in RPMI 1640 medium and dispensed (100 µL) into the appropriate wells of a 96-well polystyrene microtiter plate. The nutrient broth starter culture of each yeast strain (100 μL) was added to achieve a final inoculum of approximately 7.5 × 10^5 CFU per mL for yeast. Nutrient broth medium without the compound was used as a growth control. The development of turbidity in an inoculated medium is a function of growth and reflects an increase in both mass and cell number. To confirm this observation, 20 μL of resazurin at 0.015% w/v was added to each well and allowed to react for approximately 2 h at 30 °C. After the incubation period, the indicator of microbial growth, i.e., a change from blue to pink, confirmed the MIC value.

Candida glabrata = test: Antifungal MIC broth microdilution; format: cell-based; details: Nakaseomyces glabratus, ATCC66032; Candida glabrata ATCC 66032, RPMI 1640, 24 h, 30 °C
Procedure: as §1, §2

Vibrio fischeri = Vibrio fischeri bioluminescence inhibition assay; format: cell-based; details: Aliivibrio fischeri, 0.5 h; luminescence inhibition, 30-min exposure, 15 °C; read-out: V. fisheri, EC50 (95% CI)
Procedure: To assess the aquatic toxicity of ester-functionalized cholinium-based ILs, a series of toxicity tests were conducted using the saltwater bacterium Vibrio fischeri. The bioluminescence inhibition assay with V. fischeri is a well-standardized and frequently employed method in ecotoxicological studies due to its sensitivity and reliability. The experimental procedure involved exposing V. fischeri to increasing concentrations of ILs and measuring the reduction in bioluminescence after a 30-min period. This bioluminescence reduction serves as a quantitative indicator of the ILs’ aquatic toxicity in marine bacteria.
The V. fisheri bioluminescence assay was used to assess the aquatic toxicity of ester-functionalized choline-based ILs. […] We determined the concentration causing a 50% reduction in bacterial light emission (EC50) through regression analysis. The reported toxicity data are based on a 30-min exposure of the bacteria to the ionic liquid solution at 15 °C.

[1] = Critical micelle concentration by pyrene fluorescence; format: physicochemical; details: fluorescence (pyrene I1/I3), aqueous solution, 25 °C
Procedure: The aggregation behavior of ester-functionalized choline-based ILs was investigated through fluorescence measurements using pyrene as a solvatochromic probe. By monitoring the polarity of pyrene’s microenvironment at varying IL concentrations, the intensity ratio of pyrene’s first (I1) and third (I3) vibronic peaks was analyzed (Figure 3). A sharp decline in the I1/I3 ratio indicated the formation of IL aggregates. The critical micelle concentration (CMC) was determined as the midpoint of the transition, with the data fitting well to sigmoidal Boltzmann-type curves.
A Shimadzu RF 540 spectrofluorometer equipped with cell holder thermostatical controlled at 25 °C was used to detect steady-state fluorescence. The fluorescent probe, pyrene, was used at a concentration of 1 × 10^−6 M. After irradiation at 332 nm, the fluorescence emission spectra of pyrene dissolved in aqueous CnECholBr solutions were recorded from 340 to 450 nm.

MRSA biofilms = format: cell-based, methicillin-resistant Staphylococcus aureus; details: MRSA biofilm, MTT
Procedure: The biocidal activity of the ester-functionalized choline-based ILs on bacterial and fungal cells in biofilms was assessed by MTT cell viability assays. CnECholBr were evaluated for their potential to kill cells in pre-established biofilms of MRSA and C. albicans, two clinically relevant pathogens. Pre-formed biofilms on 48-wells plates were treated with increasing concentrations of the ester-functionalized choline-based ILs and the cell viability of the sessile cells was quantified by the MTT method. The results obtained for MRSA and C. albicans biofilms are shown in Figure 6a and Figure 6b, respectively.
Antibiofilm activity was assessed against biofilm-forming strains of methicillin-resistant Staphylococcus aureus (MRSA) ATCC 43300 and Candida albicans ATCC 90028. The biofilm inhibition and eradication capacities of ILs were evaluated against adherent bacterial biofilms grown in 96-well microtiter plates. Bacteria were grown on Tryptic soy agar at 37 °C for 24 h and the fungi on Sabouraud agar at 30 °C for 24 h. Bacteria were suspended in lysogeny broth containing glucose (1%) at 1.5 × 10^8 CFU/mL and yeasts were suspended in RPMI medium at 1.5 × 10^7 CFU/mL.
For mature biofilm formation, 200 μL of the bacterial or fungal suspension was added to each well in a 48-well microplate, and incubated for 24 h at 37 °C for bacteria and 30 °C for yeast. The wells were then washed three times with PBS and 200 µL of each test solution with different concentrations of surfactants prepared in MHB (for bacteria) or RPMI medium (for yeasts) was added to each well containing the preformed biofilm. The plates were incubated for 24 h at 30 °C. The medium was removed and the wells were then washed twice with PBS. MTT solution (200 μL) was added to each well and the plate was incubated for 4 h. The MTT was then removed and 200 μL of DMSO was added to solubilize […]. The OD value was recorded at 540 nm. Controls were performed with non-ionic liquids. Each assay was run four times and the results were averaged.

[2] = Critical micelle concentration by conductivity; format: physicochemical; details: aqueous solution, 25 °C
Source text: The change in specific conductivity of ester-functionalized choline-based ILs as a function of their concentration was investigated. […] Conductometric plots of the other homologues are presented in the Supplemetary Materials (Figures S10 and S11).
In the pre- and postmicellization zones, the specific conductivity values are represented by two straight lines with different slopes. As a consequence of the micelle’s reduced mobility in comparison to the monomers and the binding of certain counterions to it, a pronounced change in slope is observed. The critical micelle concentration (CMC) value was calculated from the point of inflection in the curve. […] In accordance with the empirical Stauff–Klevens Equation (1), a linear relationship is observed between log CMC and alkyl chain length:log cmc = A − B × n(1)
Conductivity measurements were carried out at 25 °C using an Orion conductivity cell 913005MD with an epoxy/graphite electrode and a Thermo Orion 5 Star multiparameter instrument with a cell constant of 0.475 cm^−1.

Compound	MIC (Candida parasilopsis) [mg/L]	MIC (Candida glabrata) [mg/L]	EC50 (Vibrio fischeri) [mg/L]	CMC [1] [mM]	inhibition of cell viability (MRSA biofilms; concentrations ≥ 128 µg/mL) [%]	CMC [2] [mM]	cell viability (MRSA biofilms; plateau at and above 128 µg/mL)	reduction in cell viability (MRSA biofilms; at 32 µg/mL) [%]
CCCCCCCCCCCCOC(=O)C[N+](C)(C)CCO [C12ECholBr]	> 256	32	0.27	2.9 ± 0.1	> 95	4.2 ± 0.5		
CCCCCCCCCCCCCCOC(=O)C[N+](C)(C)CCO.[Br-] [C14ECholBr, N-(2-hydroxyethyl)-N,N-dimethyl-2-oxo-2-(tetradecyloxy)ethan-1-aminium bromide]	> 256	> 256	0.44	1.3 ± 0.1		0.7 ± 0.1	around 30%	
CCCCCCCCCCOC(=O)C[N+](C)(C)CCO [C10ECholBr]	> 256	> 256	1.7	9.0 ± 0.5		11.2 ± 0.8		50
